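Each compound was tested at five concentrations against cells in 96-well plates for 48 hours. The concentration for 50% growth inhibition is given as GI50.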 Activity calls are given as the source filed them. Rule as the data show it: active = GI50 up to about 1.1 µM and inactive = higher.
What was measured:
Assay in all cases: NCI anticancer screen, dose series, 48 h
[1] = tested on: A498
[2] = tested on: A549
[3] = tested on: ACHN
[4] = tested on: CAKI-1
[5] = tested on: CCRF-CEM
[6] = tested on: DLD-1
[7] = tested on: HT-29
[8] = tested on: IGROV-1
[9] = tested on: LXFL 529
[10] = tested on: Malme-3M
[11] = tested on: OVCAR-8
[12] = tested on: SF-539
[13] = tested on: SN12C
[14] = tested on: SNB-78
[15] = tested on: UACC-62
[16] = tested on: UO-31
[17] = tested on: LOX IMVI
[18] = tested on: RXF 393
[19] = tested on: Hs-578T
[20] = tested on: MDA-MB-435

Row | Compound | GI50 [1] | GI50 [2] | GI50 [3] | GI50 [4] | GI50 [5] | GI50 [6] | GI50 [7] | GI50 [8] | GI50 [9] | GI50 [10] | GI50 [11] | GI50 [12] | GI50 [13] | GI50 [14] | GI50 [15] | GI50 [16] | GI50 [17] | GI50 [18] | GI50 [19] | GI50 [20]
1 | COc1ccc(/C=C(/C(=O)O)c2cc(OC)c(OC)c(OC)c2)cc1 | 52.4 µM (inactive) | 56.1 µM (inactive) | > 100 µM (inactive) | 44.9 µM (inactive) | 43.1 µM (inactive) | 41.2 µM (inactive) | 42.1 µM (inactive) | > 100 µM (inactive) | 69.2 µM (inactive) | 30.1 µM (inactive) | 63.5 µM (inactive) | 19.3 µM (inactive) | 46.9 µM (inactive) | 35.8 µM (inactive) | 43.6 µM (inactive) | 39.5 µM (inactive) |  |  |  | 
2 | CN(CN1C(=O)C2Cc3ccccc3CN2C1=O)c1ccccn1 (configuration not stated) | > 100 µM (inactive) | > 100 µM (inactive) | > 100 µM (inactive) | > 100 µM (inactive) | > 100 µM (inactive) | > 100 µM (inactive) |  | > 100 µM (inactive) | > 100 µM (inactive) | > 100 µM (inactive) | > 100 µM (inactive) | > 100 µM (inactive) | > 100 µM (inactive) |  | > 100 µM (inactive) | > 100 µM (inactive) | > 100 µM (inactive) |  |  | 
3 | Cc1cccc(C)c1NC(=O)C1C(=O)N(c2c(C)cccc2C)C(=O)/C1=N\N (configuration not stated) | > 100 µM (inactive) | > 100 µM (inactive) | > 100 µM (inactive) | > 100 µM (inactive) | > 100 µM (inactive) | > 100 µM (inactive) | > 100 µM (inactive) | > 100 µM (inactive) | > 100 µM (inactive) | > 100 µM (inactive) | > 100 µM (inactive) | > 100 µM (inactive) | > 100 µM (inactive) |  | > 100 µM (inactive) | > 100 µM (inactive) | > 100 µM (inactive) | > 100 µM (inactive) |  | 
4 | CC(=O)O[C@@]1(C)[C@@H](C)C(=O)O[C@@H]2CCN3CC=C(COC(=O)[C@]1(C)O)[C@H]23 |  | > 100 µM (inactive) | > 100 µM (inactive) | > 100 µM (inactive) | > 100 µM (inactive) | > 100 µM (inactive) | > 100 µM (inactive) | > 100 µM (inactive) | > 100 µM (inactive) | > 100 µM (inactive) | > 100 µM (inactive) | > 100 µM (inactive) |  |  | > 100 µM (inactive) | > 100 µM (inactive) |  |  |  | 
5 | CC(=O)OC1=CC2=CC[C@H]3[C@@H]4CCC(=O)[C@@]4(C)CC(=O)[C@]3(S)[C@@]2(C)CC1 | 41.1 µM (inactive) | 49.4 µM (inactive) | 34.2 µM (inactive) | 35.2 µM (inactive) | 29 µM (inactive) |  | > 100 µM (inactive) | 27 µM (inactive) |  | 22.8 µM (inactive) | 31.3 µM (inactive) | 20 µM (inactive) | 37.6 µM (inactive) |  | 26.1 µM (inactive) | 51.1 µM (inactive) | 18.8 µM (inactive) | 18.7 µM (inactive) | 25.1 µM (inactive) | 30.7 µM (inactive)
6 | C[N+](C)(CCNC(=O)c1cccc2cc3ccccc3nc12)Cc1ccc([N+](=O)[O-])cc1 | > 100 µM (inactive) | > 100 µM (inactive) | > 100 µM (inactive) | > 100 µM (inactive) | > 100 µM (inactive) |  | > 100 µM (inactive) | > 100 µM (inactive) |  | 49.5 µM (inactive) | > 100 µM (inactive) | > 100 µM (inactive) | > 100 µM (inactive) |  | > 100 µM (inactive) | > 100 µM (inactive) | > 100 µM (inactive) | > 100 µM (inactive) | > 100 µM (inactive) | > 100 µM (inactive)
7 | COC(=O)C1(C(=O)OC)CC2=C(S(=O)(=O)c3ccccc3)C[C@H](C#N)[C@H]2C1 | > 100 µM (inactive) | > 100 µM (inactive) | > 100 µM (inactive) | > 100 µM (inactive) | > 100 µM (inactive) |  | > 100 µM (inactive) | 44.6 µM (inactive) |  | > 100 µM (inactive) | > 100 µM (inactive) | > 100 µM (inactive) | > 100 µM (inactive) |  | > 100 µM (inactive) | > 100 µM (inactive) | > 100 µM (inactive) | > 100 µM (inactive) | > 100 µM (inactive) | 49.1 µM (inactive)
8 | CN(C)c1cc2ccccc2oc1=O | > 100 µM (inactive) | > 100 µM (inactive) | > 100 µM (inactive) | > 100 µM (inactive) | > 100 µM (inactive) |  | > 100 µM (inactive) | > 100 µM (inactive) |  | > 100 µM (inactive) | > 100 µM (inactive) | > 100 µM (inactive) | > 100 µM (inactive) |  | > 100 µM (inactive) | > 100 µM (inactive) | > 100 µM (inactive) | 20.6 µM (inactive) | > 100 µM (inactive) | > 100 µM (inactive)
9 | NC(=O)c1cccc(/N=c2\oc3ccc(Br)cc3cc2-c2nc3ccccc3[nH]2)c1 | 18.4 µM (inactive) | 13.1 µM (inactive) | 17.3 µM (inactive) | 18 µM (inactive) | 2.61 µM (inactive) |  | 15.8 µM (inactive) | 17.9 µM (inactive) |  | 22.5 µM (inactive) | 7.62 µM (inactive) | 2.49 µM (inactive) | 17.4 µM (inactive) |  | 14.4 µM (inactive) | 7.76 µM (inactive) | 16.1 µM (inactive) | 22 µM (inactive) | 27.4 µM (inactive) | 15.1 µM (inactive)
10 | Cc1nc(O)nc2nc3ccc(Cl)cc3c(N(CCO)CCO)c12 | > 100 µM (inactive) | > 100 µM (inactive) | > 100 µM (inactive) | 96.2 µM (inactive) | > 100 µM (inactive) |  | > 100 µM (inactive) | > 100 µM (inactive) |  | > 100 µM (inactive) | > 100 µM (inactive) | > 100 µM (inactive) | > 100 µM (inactive) |  | > 100 µM (inactive) | 73.6 µM (inactive) | > 100 µM (inactive) | 73.6 µM (inactive) | 10.7 µM (inactive) | > 100 µM (inactive)
11 | CN(C)CCNc1ccc2c(=O)n(CCN(C)C)c(=O)n3c4ccc([N+](=O)[O-])cc4c(=O)c1c23 | 1.41 µM (inactive) | 0.184 µM (active) | 0.146 µM (active) | 0.498 µM (active) | 0.0382 µM (active) |  | 0.0946 µM (active) | 0.126 µM (active) |  | 0.344 µM (active) | 0.248 µM (active) | 0.277 µM (active) | 0.197 µM (active) |  | 1.24 µM (inactive) | 0.262 µM (active) | 0.178 µM (active) | 0.198 µM (active) | 1.01 µM (active) | 0.49 µM (active)
12 | CCOP(C)(=O)C(N)Cc1ccc(OC)c(OC)c1 (configuration not stated) | > 100 µM (inactive) | > 100 µM (inactive) | > 100 µM (inactive) | > 100 µM (inactive) | > 100 µM (inactive) |  | > 100 µM (inactive) | > 100 µM (inactive) |  | > 100 µM (inactive) | > 100 µM (inactive) | > 100 µM (inactive) | > 100 µM (inactive) |  | > 100 µM (inactive) | > 100 µM (inactive) | > 100 µM (inactive) | > 100 µM (inactive) | > 100 µM (inactive) | > 100 µM (inactive)
13 | CCOC(=O)/C(C(C)=O)=C1/N[C@H](C(=O)OCC)CS1 |  | > 100 µM (inactive) | > 100 µM (inactive) | > 100 µM (inactive) | > 100 µM (inactive) | > 100 µM (inactive) | > 100 µM (inactive) | > 100 µM (inactive) | > 100 µM (inactive) | > 100 µM (inactive) | > 100 µM (inactive) | 10 µM (inactive) | > 100 µM (inactive) | > 100 µM (inactive) | > 100 µM (inactive) | > 100 µM (inactive) | > 100 µM (inactive) | > 100 µM (inactive) |  | 
14 | N=C(c1ccccc1)N(c1ccccc1)c1ccccc1 |  | > 100 µM (inactive) |  | > 100 µM (inactive) |  | 63.5 µM (inactive) | 42.5 µM (inactive) |  | 21.6 µM (inactive) | 23.4 µM (inactive) | > 100 µM (inactive) | 74.1 µM (inactive) | 22.5 µM (inactive) | 55 µM (inactive) |  | 68.5 µM (inactive) | 18.2 µM (inactive) | 30.5 µM (inactive) |  | 
15 | O=CC1C(=O)Nc2nc3ccccc3n2C1c1ccccc1 (configuration not stated) | 14.3 µM (inactive) | 23.3 µM (inactive) | 17.3 µM (inactive) | 21.1 µM (inactive) | 4.38 µM (inactive) |  | 20.4 µM (inactive) | 13.9 µM (inactive) |  | 18.8 µM (inactive) | 11.7 µM (inactive) | 17.9 µM (inactive) | 5.7 µM (inactive) |  | 15.7 µM (inactive) | 13.7 µM (inactive) | 11.1 µM (inactive) | 0.183 µM (active) | 31.6 µM (inactive) | 17.9 µM (inactive)
16 | CN1C(=O)C(C)(C)C2(SC(C)(C)C2(C)C)N(C)C1=S (configuration not stated) |  | > 100 µM (inactive) | > 100 µM (inactive) | 8.49 µM (inactive) | > 100 µM (inactive) | > 100 µM (inactive) | > 100 µM (inactive) | > 100 µM (inactive) | > 100 µM (inactive) | > 100 µM (inactive) | > 100 µM (inactive) | > 100 µM (inactive) | > 100 µM (inactive) | > 100 µM (inactive) | 2.12 µM (inactive) | > 100 µM (inactive) |  | > 100 µM (inactive) |  | 
17 | O=C(O)c1cnccc1-c1cc(=O)[nH]n1-c1ccccc1 | > 100 µM (inactive) | 48.9 µM (inactive) | 35.8 µM (inactive) | 15.4 µM (inactive) | 34.4 µM (inactive) |  | 21.4 µM (inactive) | > 21.3 µM (inactive) |  | > 100 µM (inactive) | 52.8 µM (inactive) | 35.6 µM (inactive) | > 87.7 µM (inactive) |  | 17.4 µM (inactive) | 27.9 µM (inactive) | 6.76 µM (inactive) | 98.6 µM (inactive) | > 91.8 µM (inactive) | 46 µM (inactive)
